According to patent US20210388364A1, “METHOD FOR DETECTING A SPECIFIC SPLICE EVENT OF A GENE OF INTEREST” (Helmholtz Zentrum Müncher - Deutsches Forschungszentrum Für …, priority 2019, published 2021):

What was measured:
[1] = test system: HEK-293T cells; test: Blasticidin-S survival selection of HEK-293T cells with or without bsd-intein in FOXP1 exon 18b; assay type: cell-based, human
Source text: To knock-out MBNL1/2 (mucleblind-like protein 1/2, SEQ ID NO: 62 and SEQ ID NO: 63) in HEK293T cell cells which carries a blasticidin resistance gene flanked by inteins within the FOXP1 exon 18b, two plasmids expressing a mammalian codon-optimized Cas9 from S. pyogenes (SpCas9, SpyCas9) with a tandem C-terminal SV40 nuclear localization signal (SV40 NLS) via a CBh hybrid RNA-polymerase II promoter and human U6 driving a single-guide-RNA (sgRNA, gRNA) for SpyCas9 (SEQ ID NO: 23) with a cloned protospacer targeting MBNL1 and MBNL2 were co-transfected into the cells. 72 h later, cells were replated in a proper format and medium were supplemented with indicated blasticidin concentration. Control condition were transfected with the same conditions but the sgRNA is targeting the control locus AAVS1 (PPP1R12C) (safe-harbor locus AAVSI intronic region, SEQ ID NO. 64). Genomic DNA was isolated from blasticidin-treated surviving colonies with Wizard® Genomic DNA Purification Kit (Promega).
Next, the inventors checked whether the KO of reported suppressors of FOXP1 exon 18b by knocking out their constitutive exon of MBNL1 and MBNL2 are able to confer survival of the cells upon treatment with bs compared to a control condition where gRNA targeting the safe-harbor AAVS1 locus (PPP1R12C) was transfected instead. […]

[2] = test system: Oaz1; test: FACS analysis of Oaz1-EXSISERS-transfected cells treated with polyamines (ribosomal frameshift readout); assay type: cell-based; details: increasing polyamine concentrations, verified by immunoblot
Source text: FIG. 7: Non-invasive protein-level quantification of co-translation regulation. […] Rising polyamine levels lead to a +1 frameshift and skipping of the in-frame stop codon leading to the full-length Oaz1 antizyme. The usage of the in-frame stop codon will otherwise lead to truncated non-functional Oaz1. Full-length Oaz1 binds and inactivates the enzyme Odc, the rate-limiting enzyme in the polyamine biosynthesis pathway, resulting in a product-mediated closed-loop homeostatic regulation of polyamine levels. […] Transfected (blue cells) cells were analyzed by counting the fraction of blue cells passing the green gate which is set to contain the 25% greenest cells in the untreated condition (0 mM).
Ribosomal frameshift-mediated regulations cannot be monitored by RT-qPCR or other RNA-based quantification methods. Exemplary, Oaz1, […] (FIG. 7a) was chosen, since it was known to be regulated by polyamine. gp41-1 split-inteins-flanked mNeonGreen and NrdJ-1-split-inteins-flanked mTagBFP2 were inserted into the full-length Oaz1 gene and transfected cells were treated with increasing polyamine concentrations to determine whether frameshift regulation could be read out via fluorescence quantification (FIG. 7b).

SMILES	cell survival ([1]; bs 5 to 12.5 μg/mL, reporter cells, control gRNA targeting AAVS1)	cell survival ([1]; unmodified HEK-293T cells, targeting MBNL1 and MBNL2 or AAVS1)	stop codon readthrough [2]
CN(CC[C@H](N)CC(=O)N[C@H]1C=C[C@H](n2ccc(N)nc2=O)O[C@@H]1C(=O)O)C(=N)N [bs, blasticidin-S]	no survival	no cells survived	–
NCCCCNCCCN [spermidine]	–	–	stimulated
NCCCNCCCCNCCCN [spermine]	–	–	stimulated
